ChEMBL document CHEMBL1201862, “PubChem BioAssay data set” (2004)
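These data come from cells grown in 96-well plates and exposed to compound for 48 hours at five concentrations. The concentration for 50% growth inhibition is given as GI50.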 The source made the active and inactive calls. Cut-off read from the data, not from the text of the source: active = GI50 up to about 1.1 µM and inactive = higher.

Columns and labels:
Assay in all cases: NCI anticancer screen, dose series, 48 h
DLD-1 = tested on: DLD-1
HCT-116 = tested on: HCT-116
HOP-92 = tested on: HOP-92
LXFL 529 = tested on: LXFL 529
MOLT-4 = tested on: MOLT-4
OVCAR-3 = tested on: OVCAR-3
OVCAR-8 = tested on: OVCAR-8
RPMI-8226 = tested on: RPMI-8226
SF-295 = tested on: SF-295
SNB-75 = tested on: SNB-75
UACC-257 = tested on: UACC-257
UACC-62 = tested on: UACC-62
XF498 = tested on: XF498
EKVX = tested on: EKVX
OVCAR-5 = tested on: OVCAR-5
BT-549 = tested on: BT-549
HCC 2998 = tested on: HCC 2998
MDA-MB-435 = tested on: MDA-MB-435
NCI/ADR-RES = tested on: NCI/ADR-RES
T47D = tested on: T47D

Measured: GI50

CC(=O)OCC1OC(n2cc(F)c(=O)[nH]c2=O)C(NC(=O)N(CCCl)N=O)C(OC(C)=O)C1OC(C)=O (stereo unspecified)
inactive: DLD-1 > 100 µM | HCT-116 > 100 µM | HOP-92 > 100 µM | LXFL 529 > 100 µM | MOLT-4 87.1 µM | OVCAR-3 > 100 µM | OVCAR-8 > 100 µM | RPMI-8226 > 100 µM | SF-295 43.1 µM | SNB-75 16.6 µM | UACC-257 > 100 µM | UACC-62 23.2 µM | XF498 36.4 µM

CC(=O)Nc1cc2c(s1)CCC1CC(=O)NN=C21 (stereo unspecified)
inactive: EKVX > 100 µM | HCT-116 > 100 µM | LXFL 529 > 100 µM | MOLT-4 > 100 µM | OVCAR-3 > 100 µM | OVCAR-5 > 100 µM | OVCAR-8 > 100 µM | RPMI-8226 > 100 µM | SF-295 > 100 µM | SNB-75 26.5 µM | UACC-62 > 100 µM | XF498 > 100 µM

N=C(N)SCc1cccc2c(=O)cc(-c3ccccc3)oc12
inactive: BT-549 13.2 µM | DLD-1 7.59 µM | EKVX 8.75 µM | HCC 2998 12 µM | HCT-116 4.73 µM | HOP-92 4.03 µM | MDA-MB-435 8.02 µM | MOLT-4 2.68 µM | NCI/ADR-RES 22 µM | OVCAR-3 6.97 µM | OVCAR-5 16.5 µM | OVCAR-8 4.5 µM | RPMI-8226 2.54 µM | SF-295 11.4 µM | SNB-75 5.41 µM | T47D 3.75 µM | UACC-257 10.9 µM | UACC-62 12.7 µM | XF498 5.87 µM

O=C(N/C(=C\c1ccccc1O)c1nc2ccccc2[nH]1)c1ccccc1
inactive: EKVX 37.8 µM | HCC 2998 > 100 µM | HCT-116 89.7 µM | HOP-92 23.8 µM | LXFL 529 51.2 µM | MOLT-4 > 100 µM | OVCAR-3 > 100 µM | OVCAR-5 > 100 µM | OVCAR-8 66.1 µM | RPMI-8226 > 100 µM | SNB-75 12.8 µM | UACC-257 > 100 µM | UACC-62 > 100 µM | XF498 > 100 µM

CC1(C)COC(c2cccc3c2C(=O)c2cccc(Cl)c2-3)=N1
inactive: EKVX 38.3 µM | HCC 2998 29.7 µM | LXFL 529 37.7 µM | MOLT-4 29.2 µM | OVCAR-3 78.2 µM | OVCAR-5 > 100 µM | OVCAR-8 38.4 µM | RPMI-8226 31.7 µM | SF-295 48.4 µM | SNB-75 41.7 µM | UACC-257 33.7 µM | UACC-62 51.5 µM | XF498 46.7 µM
